Source: patent US20250144067A1, “PERSONALIZED STARVATION THERAPY FOR CANCER” (Faeth Therapeutics, Inc., priority 2021, published 2025)
Where a name gives a salt, the structure may show the parent alone.

Key:
[1] = system: NCI-H292 lung cancer cells; experiment: FDA drug screening, complete media vs cholesterol-free media without statin (TABLE 1); assay type: cell-based, human
[2] = system: NCI-H292 lung cancer cells; experiment: FDA drug screening, complete media vs cholesterol-free media with simvastatin (TABLE 2); assay type: cell-based, human; conditions: for Cholesterol-free media + simvastatin (0.04 μM) / Complete Media: NCI-H292 cells
[3] = FDA drug library screen, cholesterol-free media with simvastatin 0.04 μM
[4] = complete media minus cholesterol-free media + simvastatin (0.04 μM), >0 enhanced anti-cancer activity, about 0 neutral, <0 antagonist
[5] = Complete minus Cholesterol-free, […]
[6] = NCI-H292 cells in cholesterol-free media without statin
[7] = NCI-H292 cells in complete media
[8] = FDA library drug in cholesterol-free media with simvastatin 0.04 μM
[9] = FDA library drug in complete media
[10] = Complete minus Cholesterol-free, greater than 0 enhanced anti-cancer activity, about 0 neutral, below 0 antagonists
[11] = cholesterol-free media with simvastatin 0.04 μM, FDA drug library screen (TABLE 2)
[12] = complete media, FDA drug library screen (TABLE 2)
[13] = cholesterol-free media with simvastatin 0.04 μM, cell growth value in FDA drug screen
[14] = complete media, cell growth value in FDA drug screen
[15] = complete media minus cholesterol-free media + simvastatin, >0 enhanced anti-cancer activity, about 0 neutral, <0 antagonist
[16] = Complete minus Cholesterol-free, >0 enhanced anti-cancer activity, about 0 neutral, <0 antagonist
[17] = NCI-H292 cells, cholesterol-free media without statin, FDA drug library screen
[18] = NCI-H292 cells, complete media, FDA drug library screen
[19] = NCI-H292 cells, cholesterol-free media without statin
[20] = drug in cholesterol-free media with simvastatin 0.04 μM
[21] = complete media vs cholesterol-free media + simvastatin (0.04 μM), >0 enhanced anti-cancer activity, about 0 neutral, <0 antagonist
[22] = complete vs cholesterol-free media, greater than 0 enhanced anti-cancer activity, about 0 neutral, below 0 antagonists
[23] = FDA drug library screen, complete media

## CC(=O)Nc1c(I)c(NC(C)=O)c(I)c(C(=O)O)c1I [Diatrizoic acid]
[1]; Complete minus Cholesterol-free, greater than 0 enhanced anti-cancer activity, about 0 neutral, below 0 antagonist
  Difference: −0.07
[1]; NCI-H292 cells, FDA drug library screen, cholesterol-free media without statin
  Cholesterol-free: 1.077
[1]; NCI-H292 cells, FDA drug library screen, complete media
  Complete: 1.004
[2]; [3]
  Cholesterol-free media + simvastatin (0.04 μM): 1.834
[2]; [4]
  Difference: −1.00

## O=C([O-])[C@H](O)[C@@H](O)[C@H](O)[C@H](O)CO.[Na+] [Gluconate (sodium)]
[1]; [5]
  Difference: −0.62
[1]; [6]
  Cholesterol-free: 1.575
[1]; [7]
  Complete: 0.95
[2]; [8]
  Cholesterol-free media + simvastatin (0.04 μM): 1.406
[2]; [9]
  Complete Media: 0.9873
[2]; complete media vs cholesterol-free media + simvastatin (0.04 μM), […]
  Difference: −0.42

## C=C1CC[C@@H]2[C@](C)(COC(=O)CCC(=O)O)[C@H](OC(=O)CCC(=O)O)CC[C@@]2(C)[C@@H]1/C=C/C1=CCOC1=O [Dehydroandrographolide succinate]
[1]; [5]
  Difference: −1.21
[1]; [6]
  Cholesterol-free: 2.195
[1]; [7]
  Complete: 0.9855
[2]; cholesterol-free media with simvastatin 0.04 μM, […]
  Cholesterol-free media + simvastatin (0.04 μM): 0.8998
[2]; complete media, […]
  Complete Media: 1.004
[2]; complete media minus cholesterol-free media + simvastatin, […]
  Difference: 0.10

## CCCN[C@H]1CCc2nc(N)sc2C1 [Pramipexole (dihydrochloride)]
[1]; [10]
  Difference: −0.49
[1]; [6]
  Cholesterol-free: 1.504
[1]; [7]
  Complete: 1.014
[2]; [11]
  Cholesterol-free media + simvastatin (0.04 μM): 0.885
[2]; [12]
  Complete Media: 0.866
[2]; [4]
  Difference: −0.02

## CC(Oc1c(Cl)cccc1Cl)C1=NCCN1 (centres unmarked) [Lofexidine (hydrochloride)]
[1]; [10]
  Difference: −0.50
[1]; [6]
  Cholesterol-free: 1.453
[1]; [7]
  Complete: 0.95
[2]; [13]
  Cholesterol-free media + simvastatin (0.04 μM): 1.271
[2]; [14]
  Complete Media: 1.376
[2]; [15]
  Difference: 0.10

## CCCCCCCCN=c1ccn(CCCCCCCCCCn2ccc(=NCCCCCCCC)cc2)cc1 [Octenidine (dihydrochloride)]
[1]; [16]
  Difference: 0.01
[1]; [17]
  Cholesterol-free: 0.00456
[1]; [18]
  Complete: 0.01483
[2]; [11]
  Cholesterol-free media + simvastatin (0.04 μM): −0.0001133
[2]; [12]
  Complete Media: −0.0003925
[2]; [4]
  Difference: 0.00

## COc1ccc(CN=c2[nH]c(N3CCC[C@H]3CO)ncc2C(=O)NCc2ncccn2)cc1Cl [Avanafil]
[1]; [16]
  Difference: −0.27
[1]; [19]
  Cholesterol-free: 0.9577
[1]; NCI-H292 cells, complete media
  Complete: 0.6848
[2]; [20]
  Cholesterol-free media + simvastatin (0.04 μM): 1.12
[2]; drug in complete media
  Complete Media: 0.9091
[2]; [21]
  Difference: −0.21

## Cc1cccc([C@H](C)c2cnc[nH]2)c1C [Dexmedetomidine (hydrochloride)]
[1]; [16]
  Difference: −0.05
[1]; [17]
  Cholesterol-free: 0.9551
[1]; [18]
  Complete: 0.9084
[2]; [11]
  Cholesterol-free media + simvastatin (0.04 μM): 1.227
[2]; [12]
  Complete Media: 1.157
[2]; [4]
  Difference: −0.07

## Nc1ncc2ncn(CC3(OCP(=O)(O)O)CC3)c2n1 [Besifovir]
[1]; [19]
  Cholesterol-free: 1.23
[1]; NCI-H292 cells, complete media
  Complete: 0.9121
[1]; [22]
  Difference: −0.32
[2]; [13]
  Cholesterol-free media + simvastatin (0.04 μM): 0.9124
[2]; [14]
  Complete Media: 0.9846
[2]; [15]
  Difference: 0.07

## Danofloxacin (mesylate)
[1]; [10]
  Difference: −0.77
[1]; [6]
  Cholesterol-free: 1.786
[1]; [7]
  Complete: 1.013
[2]; [13]
  Cholesterol-free media + simvastatin (0.04 μM): 0.9788
[2]; [14]
  Complete Media: 1.081
[2]; [15]
  Difference: 0.10

## Cc1cc(Nc2ncc(Cl)c(Nc3ccccc3S(=O)(=O)C(C)C)n2)c(OC(C)C)cc1C1CCNCC1 [Ceritinib]
[1]; [16]
  Difference: −0.05
[1]; [17]
  Cholesterol-free: 0.1038
[1]; [18]
  Complete: 0.05759
[2]; [11]
  Cholesterol-free media + simvastatin (0.04 μM): 0.1163
[2]; [12]
  Complete Media: 0.0662
[2]; [4]
  Difference: 0.05

## OCc1cc(C(O)CNCCCCCCOCCCCc2ccccc2)ccc1O (centres unmarked) [Salmeterol (xinafoate)]
[1]; [19]
  Cholesterol-free: 1.696
[1]; NCI-H292 cells, complete media
  Complete: 1.368
[1]; [22]
  Difference: −0.33
[2]; [3]
  Cholesterol-free media + simvastatin (0.04 μM): 0.9341
[2]; [23]
  Complete Media: 1.186
[2]; [15]
  Difference: 0.25

## O=C1[C@@H]2[C@H]3CC[C@H](C3)[C@@H]2C(=O)N1C[C@@H]1CCCC[C@H]1CN1CCN(c2nsc3ccccc23)CC1 [Lurasidone (Hydrochloride)]
[1]; [16]
  Difference: −0.27
[1]; [19]
  Cholesterol-free: 1.115
[1]; NCI-H292 cells, complete media
  Complete: 0.8426
[2]; [11]
  Cholesterol-free media + simvastatin (0.04 μM): 0.8431
[2]; [12]
  Complete Media: 0.8046
[2]; [4]
  Difference: −0.04

## Oc1ncnc2[nH]ncc12 [Allopurinol]
[1]; [16]
  Difference: −0.29
[1]; [19]
  Cholesterol-free: 1.198
[1]; NCI-H292 cells, complete media
  Complete: 0.9095
[2]; [13]
  Cholesterol-free media + simvastatin (0.04 μM): 0.8896
[2]; [14]
  Complete Media: 0.9734
[2]; [15]
  Difference: 0.08

## CC(=O)NC(CCC(N)=O)C(=O)O (centres unmarked) [Aceglutamide]
[1]; [19]
  Cholesterol-free: 1.178
[1]; NCI-H292 cells, complete media
  Complete: 0.7674
[1]; [22]
  Difference: −0.41
[2]; [3]
  Cholesterol-free media + simvastatin (0.04 μM): 0.762
[2]; [23]
  Complete Media: 1.026
[2]; [15]
  Difference: 0.26

## CC(=O)S[C@@H]1CC2=CC(=O)CC[C@]2(C)[C@H]2CC[C@@]3(C)[C@@H](CC[C@@]34CCC(=O)O4)[C@H]12 [Spironolactone]
[1]; [16]
  Difference: 0.03
[1]; [17]
  Cholesterol-free: 1.102
[1]; [18]
  Complete: 1.134
[2]; [8]
  Cholesterol-free media + simvastatin (0.04 μM): 1.784
[2]; [9]
  Complete Media: 1.272
[2]; [21]
  Difference: −0.51

## Cn1nnc2c(C(N)=O)ncn2c1=O [Temozolomide]
[1]; [19]
  Cholesterol-free: 1.265
[1]; NCI-H292 cells, complete media
  Complete: 0.9503
[1]; [22]
  Difference: −0.31
[2]; [3]
  Cholesterol-free media + simvastatin (0.04 μM): 0.984
[2]; [23]
  Complete Media: 0.8242
[2]; [21]
  Difference: −0.16

## NS(=O)(=O)c1cc2c(cc1Cl)NC(C(Cl)Cl)NS2(=O)=O (centres unmarked) [Trichlormethiazide]
[1]; [19]
  Cholesterol-free: 1.351
[1]; NCI-H292 cells, complete media
  Complete: 0.9482
[1]; [22]
  Difference: −0.40
[2]; [13]
  Cholesterol-free media + simvastatin (0.04 μM): 1.02
[2]; [14]
  Complete Media: 1.045
[2]; [15]
  Difference: 0.02

## Varenicline (Tartrate)
[1]; [5]
  Difference: −0.52
[1]; [6]
  Cholesterol-free: 1.334
[1]; [7]
  Complete: 0.8157
[2]; [11]
  Cholesterol-free media + simvastatin (0.04 μM): 1.729
[2]; [12]
  Complete Media: 1.705
[2]; complete media minus cholesterol-free media + simvastatin (0.04 μM), […]
  Difference: −0.02

## CC(C)/N=c1\cc2n(-c3ccc(Cl)cc3)c3ccccc3nc-2cc1Nc1ccc(Cl)cc1 [Clofazimine]
[1]; [19]
  Cholesterol-free: 0.8398
[1]; NCI-H292 cells, complete media
  Complete: 0.4066
[1]; [22]
  Difference: −0.43
[2]; [11]
  Cholesterol-free media + simvastatin (0.04 μM): 0.9946
[2]; [12]
  Complete Media: 0.9365
[2]; [4]
  Difference: −0.06

## CCC(C)(Oc1ccc(C2(c3ccc(OC(C)(CC)C(=O)O)cc3)CCCCC2)cc1)C(=O)O (centres unmarked) [Clinofibrate]
[1]; [19]
  Cholesterol-free: 1.347
[1]; NCI-H292 cells, complete media
  Complete: 1.007
[1]; [22]
  Difference: −0.34
[2]; [20]
  Cholesterol-free media + simvastatin (0.04 μM): 1.342
[2]; drug in complete media
  Complete Media: 1.081
[2]; [21]
  Difference: −0.26

## CC(C)(C)c1cc(-c2cc(-c3ccc(C(=O)O)cc3)ccc2OCCO)ccc1N1CCCC1 [Trifarotene]
[1]; [19]
  Cholesterol-free: 1.099
[1]; NCI-H292 cells, complete media
  Complete: 0.7867
[1]; [22]
  Difference: −0.31
[2]; [3]
  Cholesterol-free media + simvastatin (0.04 μM): 0.9343
[2]; [23]
  Complete Media: 0.8355
[2]; [21]
  Difference: −0.10
